According to PMC11477965, “Synthesis and Anti-Liver Fibrosis Research of Aspartic Acid Derivatives” (Molecules, 2024):
Where a SMILES comes first, the peptide text is derived from it.

Experiments:
COL1A1 promoter = COL1A1 promoter luciferase reporter inhibition assay in LX-2 cells; assay type: cell-based, human; conditions: for inhibition at 500 µM: Homo sapiens, read-out: Inhibitory Rate (%) of COL1A1 promotor; for relative fluorescence unit (RFU) of COL1A1 promotor: mean ± SD, n = 3, Control 124874.7 ± 10750.9;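 for all read-outs here: Anti-fibrotic screen: luciferase reporter driven by the COL1A1 promoter in human hepatic stellate LX-2 cells, compounds applied in complete medium in 96-well plates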
Experimental: A total of 32 target compounds, the lead compound L-Asp, and the positive control epigallocatechin gallate (EGCG), known for its anti-hepatic fibrotic activity [29], were tested for inhibitory effects on COL1A1 promoter activity at a concentration of 0.5 mM.
The LX-2 cells at 90% confluent were transfected with the plasmid of pGL4.17-COL1A1 promoter using Lipofectamine 2000 (Invitrogen, 11668019, Carlsbad, CA, USA) with Opti-MEM serum-free medium (Gibco, 1930104). After culturing for 6 h, the cells were replaced with a complete medium and seeded in 96-well plates for 24 h. The compound to be tested was prepared using a complete medium and added to the 96-well plate. After 24 h, Bright-Glo Luciferase Assay System (Promega, Madison, WI, USA) was used to detect the activity of COL1A1 promoter and the assaying inhibition rate.

[1] = test system: IKKβ-NF-κB signaling pathway; test: LPS-induced inflammation in LX-2 cells (western blot); assay type: cell-based, human; conditions: LPS 1 μg/mL, 24 h, 500 μM bands scanned
Experimental: Inflammation is crucial in the onset and progression of liver fibrosis, and fibrosis can further exacerbate tissue inflammation. […] To assess the anti-inflammatory effects of Compounds 41 and 8a, LX-2 cells were pre-incubated in serum-free medium for 24 h before LPS stimulation, followed by treatment with different concentrations of the compounds in serum-free medium containing 1 μg/mL LPS for another 24 h. Changes in inflammatory cytokine protein levels were analyzed using western blotting.
The IKKβ-NF-κB signaling pathway has been closely linked to the severity of liver fibrosis, with IKKβ serving as the primary catalytic subunit responsible for NF-κB activation. Therefore, this study investigated the NF-κB pathway by measuring IKKβ kinase activity. […] To evaluate the effects of the target compounds on LPS-induced inflammatory cytokines, four concentrations (50, 100, 200 and 500 μmol/L) were tested, and the results were analyzed by grayscale scanning of western blot bands using ImageJ software (version 1.53t), with normalization to GAPDH protein levels.
After the confluence of LX-2 cells reached 90%, the cells were treated with serum-free medium for 24 h. 2 ng/mL TGFβ1 or 1 μg/mL LPS were used in combination with compounds of different concentrations for 24 h. The samples of cells were lysed in RIPA buffer supplemented with protease inhibitor cocktail (Roche) and separated by SDS-PAGE. After the proteins were transferred to the PVDF membrane, 5% skim milk in TBS-T buffer was used to block them at room temperature for 2 h. Specific primary and secondary antibodies were used to detect the target protein. Finally, the blot was visualized using the Tanon 5200 system (Tanon, Shanghai, China) and the protein expression of GAPDH was used as the internal reference.

| Compound | melting point | inhibition at 500 µM (COL1A1 promoter; LX-2 cells, 0.5 mM, 24 h) | relative fluorescence unit (RFU) of COL1A1 promotor (COL1A1 promoter; LX-2 cells) | fold decrease in COL1A1 promoter inhibitory activity relative to 45 (COL1A1 promoter; 0.5 mM, versus 45) | Inhibitory Rate (%) of COL1A1 promotor (COL1A1 promoter; LX-2 cells, 0.5 mM, 24 h) | inhibition of inflammatory factors [1] |
| --- | --- | --- | --- | --- | --- | --- |
| CN[C@@H](CCC(=O)O)C(=O)O [Compound 1, Methyl-L-glutamic acid] | 156.1 to 157.5 °C | < 0% | 143674.9 ± 32109.7 RFU | – | – | – |
| CNC(=O)C[C@H](N)C(=O)O [Compound 4c, N^4-methyl-L-asparagine] | – | 35.5 ± 18.1% | 80485.7 ± 22615.1 RFU | – | – | – |
| CCNC(=O)C[C@H](N)C(=O)O [Compound 4d, N^4-ethyl-L-asparagine] | – | 33.1 ± 19% | – | – | – | – |
| O=C(O)C[C@H](NC(=O)OCC1c2ccccc2-c2ccccc21)C(=O)NCCO [Compound 5, (S)-3-((((9H-fluoren-9-yl)methoxy)carbonyl)amino)-4-((2-hydroxyethyl)amino)-4-oxobutanoic acid] | 113.6 to 115.1 °C | 24 ± 15.4% | 94919.5 ± 19273.7 RFU | – | – | – |
| N[C@@H](CC(=O)O)C(=O)NCCO [Compound 6, (S)-3-amino-4-((2-hydroxyethyl)amino)-4-oxobutanoic acid] | – | < 0% | 128613.0 ± 57574.1 RFU | – | – | – |
| Cn1cc(O)c(=O)cc1CC(N)C(=O)O (stereo not drawn) [Compound 20b, 2-amino-3-(5-hydroxy-1-methyl-4-oxo-1,4-dihydropyridin-2-yl)propanoic acid] | – | 24 ± 6.38% | 94881.8 ± 7963.9 RFU | – | – | – |
| Cc1oc(COC(=O)C[C@H](N)C(=O)O)cc(=O)c1O [Compound 23b, (S)-2-amino-4-((5-hydroxy-6-methyl-4-oxo-4H-pyran-2-yl)methoxy)-4-oxobutanoic acid] | – | 34.6 ± 1.75% | 81660.6 ± 2179.5 RFU | – | – | – |
| Cc1cc(=O)n2c(CNC(=O)[C@H](N)CCO)csc2n1 [Compound 29, (R)-2-amino-4-hydroxy-N-((7-methyl-5-oxo-5H-thiazolo [3,2-a]pyrimidin-3-yl)methyl)butanamide] | – | 33.2 ± 33.3% | 83406.5 ± 41616.9 RFU | – | – | – |
| Cc1cc(=O)n2c(COC(=O)C[C@H](N)C(=O)O)csc2n1 [Compound 31, (S)-2-amino-4-((7-methyl-5-oxo-5H-thiazolo [3,2-a]pyrimidin-3-yl)methoxy)-4-oxobutanoic acid] | – | 14.6 ± 3.11% | 106608.6 ± 3888.3 RFU | – | – | – |
| Cc1cc(=O)n2c(CNc3ccccn3)csc2n1 [Compound 32a, 7-methyl-3-((pyridin-2-ylamino)methyl)-5H-thiazolo [3,2-a]pyrimidin-5-one] | – | 47.7 ± 4.81% | 65321.0 ± 6005.7 RFU | – | – | – |
| Cc1cc(=O)n2c(CN[C@@H](CC(=O)O)C(=O)O)csc2n1 [Compound 33, ((7-methyl-5-oxo-5H-thiazolo [3,2-a]pyrimidin-3-yl)methyl)-L-aspartic acid] | – | 6.39 ± 7.06% | 116893.2 ± 8812.8 RFU | – | – | – |
| Cc1cc(=O)n2c(CC(=O)N[C@H]3CCOC3=O)csc2n1 [Compound 34a, (S)-2-(7-methyl-5-oxo-5H-thiazolo [3,2-a]pyrimidin-3-yl)-N-(2-oxotetrahydrofuran-3-yl)acetamide] | – | 15.5 ± 16.6% | 105579.0 ± 20740.0 RFU | – | – | – |
| Cc1cc(=O)n2c(CC(=O)N[C@@H](CC(=O)O)C(=O)O)csc2n1 [Compound 35, (2-(7-methyl-5-oxo-5H-thiazolo [3,2-a]pyrimidin-3-yl)acetyl)-L-aspartic acid] | 253.1 to 256.8 °C | < 0% | 161478.3 ± 67708.9 RFU | – | – | – |
| N[C@@H](CC(=O)OCc1cc(=O)n2ccsc2n1)C(=O)O [Compound 37, (S)-2-amino-4-oxo-4-((5-oxo-5H-thiazolo [3,2-a]pyrimidin-7-yl)methoxy)butanoic acid] | – | 8.46 ± 8.16% | 114307.8 ± 10191.8 RFU | – | – | – |
| COC(=O)[C@H]1C[C@H](Oc2cc(C)nn3c(-c4ccc(OC)c(OC)c4)cnc23)CN1 [Compound 43, Methyl (2R,4S)-4-((3-(3,4-dimethoxyphenyl)-6-methylimidazo [1,2-b]pyridazin-8-yl)oxy)pyrrolidine-2-carboxylate] | 127.2 to 129.6 °C | 38.2 ± 3.28% | 77132.5 ± 4101.8 RFU | 1.8 fold | – | – |
| O=C(O[C@@H]1Cc2c(O)cc(O)cc2O[C@@H]1c1cc(O)c(O)c(O)c1)c1cc(O)c(O)c(O)c1 [EGCG, epigallocatechin gallate, reference compound] | – | – | 79340.1 ± 5808.7 RFU | – | 36.46 ± 4.64% | – |
| N[C@@H](CC(=O)O)C(=O)O [L-Asp, L-aspartic acid, reference compound] | – | 11.3 ± 0.35% | 110724.3 ± 444.6 RFU | – | – | moderate inhibition |

More lines, main results first:

| melting point | Compound | inhibition at 500 µM (COL1A1 promoter; LX-2 cells, 0.5 mM, 24 h) | relative fluorescence unit (RFU) of COL1A1 promotor (COL1A1 promoter; LX-2 cells) | fold decrease in COL1A1 promoter inhibitory activity relative to 45 (COL1A1 promoter; 0.5 mM, versus 45) | Inhibitory Rate (%) of COL1A1 promotor (COL1A1 promoter; LX-2 cells, 0.5 mM, 24 h) | inhibition of inflammatory factors [1] |
| --- | --- | --- | --- | --- | --- | --- |
| 257.8 to 259.4 °C | N[C@@H](CC(=O)Nc1nc(CO)cs1)C(=O)O [Compound 4a, N^4-(4-(hydroxymethyl)thiazol-2-yl)-L-asparagine] | 14.9 ± 8.45% | 106237.2 ± 10544.5 RFU | – | – | – |
| 268.9 to 271.2 °C | N[C@@H](CC(=O)Nc1nccs1)C(=O)O [Compound 4b, N^4-(thiazol-2-yl)-L-asparagine] | 31.2 ± 14.3% | 85934.6 ± 17864.6 RFU | – | – | – |
| 195.3 to 198.6 °C | NC(=O)C[C@H](N)C(=O)N[C@@H](CC(=O)O)C(=O)O [Compound 8b, L-asparaginyl-L-aspartic acid] (H-Asn-Asp-OH) | 23.8 ± 4.57% | 95132.4 ± 5710.5 RFU | – | – | – |
| 228.1 to 229.6 °C | Cc1ccc(COC(=O)C[C@H](N)C(=O)O)cc1 [Compound 11a, (S)-2-amino-4-((4-methylbenzyl)oxy)-4-oxobutanoic acid] | 11.4 ± 18.5% | 110620.0 ± 23148.4 RFU | – | – | – |
| 227.6 to 230.2 °C | N[C@@H](CC(=O)OCc1ccc(F)cc1)C(=O)O [Compound 11b, (S)-2-amino-4-((4-fluorobenzyl)oxy)-4-oxobutanoic acid] | < 0% | 130725.3 ± 8310.2 RFU | – | – | – |
| 207.2 to 209.5 °C | N[C@@H](CC(=O)OCc1ccc([N+](=O)[O-])cc1)C(=O)O [Compound 11c, (S)-2-amino-4-((4-nitrobenzyl)oxy)-4-oxobutanoic acid] | < 0% | 158140.3 ± 50740.1 RFU | – | – | – |
| 205.1 to 207.3 °C | Cc1ccc(COC(=O)[C@@H](N)CC(=O)O)cc1 [Compound 11d, (S)-3-amino-4-((4-methylbenzyl)oxy)-4-oxobutanoic acid] | 19.9 ± 4.99% | 100087.5 ± 6229.2 RFU | – | – | – |
| 197.6 to 199.5 °C | N[C@@H](CC(=O)O)C(=O)OCc1ccc(F)cc1 [Compound 11e, (S)-3-amino-4-((4-fluorobenzyl)oxy)-4-oxobutanoic acid] | 27.9 ± 5.81% | 89998.6 ± 7257.5 RFU | – | – | – |
| 190.6 to 192.1 °C | N[C@@H](CC(=O)O)C(=O)OCc1ccc([N+](=O)[O-])cc1 [Compound 11f, (S)-3-amino-4-((4-nitrobenzyl)oxy)-4-oxobutanoic acid] | 20.6 ± 14.3% | 99123.6 ± 17860.3 RFU | – | – | – |
| 217.1 to 219.8 °C | NC(Cc1cc(=O)c(O)co1)C(=O)O (stereo not drawn) [Compound 20a, 2-amino-3-(5-hydroxy-4-oxo-4H-pyran-2-yl)propanoic acid] | 17.9 ± 10.1% | 102508.7 ± 12580.9 RFU | – | – | – |
| 156.3 to 158.7 °C | N[C@@H](CC(=O)OCc1cc(=O)c(O)co1)C(=O)O [Compound 23a, (S)-2-amino-4-((5-hydroxy-4-oxo-4H-pyran-2-yl)methoxy)-4-oxobutanoic acid] | 27.9 ± 1.16% | 90057.5 ± 1452.6 RFU | – | – | – |
| 218 to 220.2 °C | Cc1cc(=O)n2c(CNC(=O)c3cccc(F)c3F)csc2n1 [Compound 28a, 2,3-difluoro-N-((7-methyl-5-oxo-5H-thiazolo [3,2-a]pyrimidin-3-yl)methyl)benzamide] | 43.9 ± 6.36% | 70040.5 ± 7951.7 RFU | – | – | – |
